Assay results reported in PMC7206208, “In vivo data: treatment with the F11R/JAM-A peptide 4D decreases mortality and reduces the generation of atherosclerotic plaques in ApoE-deficient mice” (Data in Brief, 2020).
Non-standard residues stand in square brackets, D forms with d. Residues, ends and D or L forms follow the SMILES beside them.

Key:
ApoE-/- mice = assay: Chronic treatment of ApoE-/- mice: atherosclerotic plaques and physical appearance; assay type: in vivo, mouse
Method: Female Apo E^-/- mice (six weeks old) of a C57BL/6J background, (Jackson Laboratory, Bar Harbor, Me), were divided into two separately-housed groups. Group 1 was treated with peptide 4D by daily, intraperitoneal injections with peptide 4D (4.3 mg/200µl) for a 3 month period. Group 2 was injected daily with an equivalent amount of diluent vehicle (200µl of 0.9% saline) for the same 3- month period. All animals were fed a regular Rodent Diet (Calories provided by protein 28.1%, fat 12.13% and carbohydrates 59.8%) for two months, then the diet was switched to a Western-type diet (TD.88137 Adjusted Calories Diet (42% from fat) (0.15% cholesterol, 21% anhydrous milk fat) (Harlan Laboratories Inc.) to induce hypercholesterolemia for a period of one month, [2]. Following 3 month of injections with either the F11R peptide 4D or the vehicle, saline, the animals were euthanized. The aortas and hearts were isolated, dissected, and the atherosclerotic lesions were analyzed.
Following euthanasia, the aortas were prepared for dissection and the aortic arches were photographed. Following dissection, en face lesion surface area assay was performed on the aortas and hearts as previously described, [4], [5]. The dissected aortas were stained with Oil-Red-O stain modified from previously described methods, [4], [6]. […] The total intimal lesion area and the necrotic core area (NE) per cross section were quantified by taking the average of 6 sections spaced 30 µm apart, beginning at the base of the aortic root. The necrotic core areas, acellular/anuclear areas (negative for hematoxylin-positive nuclei, white areas of lesion) were measured per cross section from the same slides where total intimal lesion area was measured. […] Lesion areas or necrotic areas (white areas of lesion) where measured and summarized using software Image-J. The aortas were fixed in PBS/4% formaldehyde for 3 days, washed in PBS followed by staining with 1.8% Oil-Red-O in 60% isopropanol for 15 min at 22°C, then de-stained in 60% isopropanol for 5 min. […]

[1] = tested on: human platelets (in platelet-rich plasma); assay: ADP-induced platelet aggregation in platelet-rich plasma (turbidimetric); assay type: cell-based; conditions: for maximal platelet aggregation [%] in response to 10 µM ADP: PRP, 37°C, 2 min pre-incubation, mean ± SD, n=3-7
Method: Fig. 4 Test of the effect of peptide 4D on the ADP-induced aggregation of human platelets (in platelet-rich plasma). Fig. 4A. This figure depicts a representative tracing of platelet aggregation induced by ADP (2µM) in the presence of peptide 4D (P4D; 500µM, final concentration), in comparison to the ADP-induced platelet aggregation in the absence of peptide 4D (control). Fig. 4B. This figure depicts a representative tracing of platelet aggregation induced by ADP (10µM) in the presence of peptide 4D (P4D, 500µM final concentration), in comparison to the ADP-induced platelet aggregation in the absence of peptide 4D (control).
Platelet aggregation in platelet-rich plasma (PRP) was carried-out by using the turbidimetric method in a platelet aggregometer (Chronolog, Haverstown, PA). Aliquots of the PRP were maintained at 37°C. The effect of peptide 4D on platelet aggregation was examined by utilizing three concentrations of peptide 4D (final concentrations of 100µM, 250µM and 500 µM). The PRP was incubated for 2 minutes with peptide 4D prior to the addition of ADP at final concentrations of 2µM (subthreshold concentration) or 10µM, for the initiation of platelet aggregation.

[2] = tested on: inflamed endothelial cells; conditions: in culture; the authors' earlier work; cited from earlier work
Excerpt: The data in this article focus on the F11 Receptor (F11R/JAM-A; Junctional Adhesion Molecule-A; JAM-A, F11R), a cell adhesion protein constitutively expressed on the membrane surface of circulating platelets and localized within the tight junctions of healthy endothelial cells (ECs). Previous reports have shown that F11R/JAM-A plays a critical role in the adhesion of platelets to an inflamed endothelium due to its’ pathological expression on the luminal surface of the cytokine-inflamed endothelium. Since platelet adhesion to an inflamed endothelium is an early step in the development of athero ...

platelets = assay: M.Ab.F11-induced platelet aggregation in vitro; assay type: cell-based; conditions: peptide 4D 0.3 mg (670 µg/ml), from dose-response
inflamed endothelium = assay: Platelet adhesion to walls of blood vessels, intravital microscopy; assay type: in vivo, mice; conditions: intravital microscopy videos, arteriole and venule
Excerpt: The F11 Receptor (F11R/JAM-A; Junctional Adhesion Molecule-A; JAM-A; F11R) is a cell adhesion protein present on the surface of circulating platelets and located within the tight junctions of endothelial and epithelial cells. The data presented here confirm in-vivo evidence for the critical role of F11R/JAM-A in the formation of atherosclerotic plaques in ApoE^-/- mice and provide further strong experimental support for our work in Babinska et al. (2019). […] These mice were euthanized, and at the same time, two mice obtained from the peptide 4D-treated group were randomly-selected and euthanized, and their tissues examined histologically in comparison to the controls. […] The data presented in Fig. 3, compare the overall health and physical appearance of 10^1/2 months old ApoE^-/- mice following their termination of a 4- month injection period with either peptide 4D or the vehicle. […] Data of Fig. 5 display the pharmacokinetic analysis (PK) of peptide 4D in vivo. Data display by videos: videos depicting platelet adhesion to the walls of blood vessels using the Intravital Microscopy System are provided and available in this article as the Supplemental Files. […]

[3] = mouse, in vivo
Method: The concentration of peptide 4D was measured in the plasma at various time points, and is expressed in µg/ml. […] Time points of 15 min, followed by 1, 2, 4, 5, and 24 hours after the administration of peptide 4D were selected to generate the concentration of Cmax, Tmax, area under the plasma concentration time curve (AUC), drug clearance, terminal elimination half-life, and volume of distribution.
Drug pharmacokinetics (PK) in vivo is a key requirement for the evaluation of the stability and availability of peptide 4D, as a potential compound for use in the next phase of our investigations. Accordingly, PK data of peptide 4D were obtained by the Services of Bio Quant, San Diego, CA. Thus far, a single dose of the F11R peptide 4D and a time perfusion course were performed in Balb/c mice. Time points of 15 min, followed by 1, 2, 4, 5, and 24 hr after the administration of peptide 4D to animals, were selected to generate concentration vs time curves thereby allowing for the determination of the PK parameters of maximal concentration (Cmax), maximal time (Tmax), area under the plasma concentration time curve (AUC), drug clearance, terminal elimination half-life, and volume of distribution of peptide 4D.

## CC(C)[C@H](NC(=O)[C@H](CO)NC(=O)[C@H](N)CCCCN)C(=O)N[C@H](C(=O)N[C@H](CCCNC(=N)N)C(=O)N[C@@H](CCC(=O)O)C(=O)N[C@@H](CC(=O)O)C(=O)N[C@H](C(=O)NCC(=O)N[C@H](C(=O)N[C@@H](Cc1ccc(O)cc1)C(=O)N[C@H](C(=O)N[C@@H](CS)C(N)=O)[C@@H](C)O)[C@@H](C)O)[C@@H](C)O)[C@@H](C)O [peptide 4D] (H-[dK]SVT[dR]EDTGTYTC-NH2; N-terminus and C-terminus assumed)
ApoE-/- mice; daily i.p. 215 mg/kg (4.3 mg/200 µl) for 3 months, versus saline controls, two mice per group, Fig. 2
  plaque accumulation in the aortic arch and the whole aorta: much diminished plaque accumulation
ApoE-/- mice; daily i.p. for 3 months, versus saline controls, Fig. 1
  external physical appearance: healthy
ApoE-/- mice; daily i.p. for 4 months, then stopped, observed at 10 1/2 months of age, Fig. 3B
  skin lesion on the chest: lack of lesion
[1]; Fig. 4 and Table 1, ADP 2 or 10 µM, peptide 100-500 µM
  effect on ADP-induced platelet aggregation: lack of an inhibitory effect
[1]; P4D 100 µM
  maximal platelet aggregation [%] in response to 10 µM ADP: 70 ± 12%
[1]; P4D 250 µM
  maximal platelet aggregation [%] in response to 10 µM ADP: 73 ± 13%
[1]; P4D 500 µM
  maximal platelet aggregation [%] in response to 10 µM ADP: 74 ± 20%
[2]
  adhesion of platelets to the inflamed endothelial cells: could be blocked
platelets
  inhibition of M.Ab.F11-induced platelet aggregation: completely inhibited
Inflamed endothelium
  adhesion of platelets onto the inflamed endothelium: significant blockade
[3]
  Tmax: 18 min
  half-life: > 210 min
